Assay results published in US20250115607A1, “PYRIDINE DERIVATIVES” (Hoffmann-La Roche Inc., priority 2022, published 2025).

Tests used:
Format in all cases: biochemical
[1] = target: SIK1 (Homo sapiens (Human), UniProt P57059); test: Phosphorylation assay SIK1 (RapidFire mass spectrometry); settings: 5 nM SIK1, CHK-peptide, ATP, 30 min pre-incubation, 45 min incubation; read-out: SIK1 RF IC50
Protocol: (§1) In the presence of SIK2 (resp. SIK1 or SIK3) and ATP the CHK-peptide ([…] with C-terminal arginine amide modification) were phosphorylated at one of the four feasible serine's. Only one phosphorylation is observed under the assay conditions. 60 nl of each compound dilution series (12 point; dilution factor 3, generally 30 μM to 170 pM) in DMSO were transferred by acoustic dispensing to the assay plate and 30 minutes pre-incubated (ambient temperature) after the addition of 5 μl SIK1 (5 nM) resp. 5 μl SIK2 (0.5 nM) or 7 μl SIK3 (1.5 nM) in assay-buffer (12.5 mM HEPES (pH 7.0), 10 mM magnesium acetate, 0.005% BSA). 10 μM CHK-peptide solution and 5 μl of 100 μM ATP for SIK1 & SIK2 resp. 3 μl for SIK3 in assay-buffer were added and incubated ambient for 45 minutes. 40 μl of 0.125% formic acid in water were added to quench the reaction. RapidFire (RF) Mass Spectrometry was utilized for data generation as described below. The multiple charged species (3-5 charges) for the phosphorylated and non-phosphorylated form measured by MRM (Multiple Reaction Monitoring; API5000 or 6500+) or EIC (Extracted Ion Current; QToF) were summed up and the ratio calculated (sum phosphorylated species/sum all species) for data evaluation. Normalization was performed by Genedata software based on the non-inhibition control DMSO and the commercially available STK inhibitor @1 μM YKL-05-099 (CAS number 1936529-65-5). The results of the assay are expressed in half-maximal inhibitory concentrations (IC50s) and are summarized below in Table 1.
(§2) Samples were aspirated by vacuum for max. 600 ms and loaded to C4-cartridge (Agilent; #G9203A) for 3000 ms@1.5 ml/min with 0.1% formic acid in water. Afterwards samples were transferred to the API5000 (API6500+) or QToF mass spectrometer for 4000 ms@1.25 ml/min with 90% acetonitrile; 10% water; 0.007% TFA; 0.093 formic acid. The cartridge was reconditioned for additional 500 ms with 0.1% formic acid in water.
(§3) All MS analyses using the following MS-setup in MRM mode: Electrospray positive; Ion Spray Voltage: 4000V; Temperature: 550° C.; Collision Gas: 5; Curtain Gas: 15; Gas 1: 40; Gas 2: 42; EP: 10. DP=declustering potential; CE=collision energy; CXP=cell exit potential.
(§4) All MS analyses using the following MS-setup in Mode MS: Dual AJS Electrospray positive; VCap: 3000V; Drying & Sheath gas: 340° C.@81/min; Nebulizer: 60 psig; Nozzle Voltage: 2000V; Fragmentor: 130V; Skimmer: 35V; Oct1 RF Vpp: 700V; Ref masses on@5 spectra/s

[2] = target: SIK3 (Homo sapiens (Human), UniProt Q9Y2K2); test: Phosphorylation assay SIK3 (RapidFire mass spectrometry); settings: 1.5 nM SIK3, CHK-peptide, ATP, 30 min pre-incubation, 45 min incubation; read-out: SIK3 RF IC50
Protocol: as §1, §2, §3, §4

[3] = target: SIK2 (Homo sapiens (Human), UniProt Q9H0K1); test: Phosphorylation assay SIK2 (RapidFire mass spectrometry); settings: 0.5 nM SIK2, CHK-peptide, ATP, 30 min pre-incubation, 45 min incubation; read-out: SIK2 RF IC50
Protocol: as §1, §2, §3, §4

SIK1, sequence (P57059 whole entry): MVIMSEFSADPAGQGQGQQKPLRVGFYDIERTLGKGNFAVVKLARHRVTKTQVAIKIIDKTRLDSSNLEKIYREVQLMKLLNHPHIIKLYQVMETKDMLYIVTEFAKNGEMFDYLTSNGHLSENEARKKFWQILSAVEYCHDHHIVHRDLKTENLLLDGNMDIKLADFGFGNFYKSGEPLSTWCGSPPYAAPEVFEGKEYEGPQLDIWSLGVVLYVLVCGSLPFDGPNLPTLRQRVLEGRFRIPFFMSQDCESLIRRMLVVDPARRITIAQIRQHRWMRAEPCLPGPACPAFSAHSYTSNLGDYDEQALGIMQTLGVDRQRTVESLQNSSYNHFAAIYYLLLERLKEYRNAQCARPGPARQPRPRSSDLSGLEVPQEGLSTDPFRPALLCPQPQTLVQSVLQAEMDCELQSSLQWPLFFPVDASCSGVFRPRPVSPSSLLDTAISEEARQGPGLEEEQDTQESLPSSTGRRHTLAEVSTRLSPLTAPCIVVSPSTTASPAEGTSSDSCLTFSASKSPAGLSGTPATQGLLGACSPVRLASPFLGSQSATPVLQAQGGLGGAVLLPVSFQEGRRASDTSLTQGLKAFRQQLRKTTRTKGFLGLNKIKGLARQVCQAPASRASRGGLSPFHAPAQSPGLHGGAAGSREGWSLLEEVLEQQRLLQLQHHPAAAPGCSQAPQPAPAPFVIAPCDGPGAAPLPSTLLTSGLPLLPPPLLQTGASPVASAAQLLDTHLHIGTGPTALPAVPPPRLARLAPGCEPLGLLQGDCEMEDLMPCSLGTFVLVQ
SIK2, sequence (Q9H0K1 whole entry): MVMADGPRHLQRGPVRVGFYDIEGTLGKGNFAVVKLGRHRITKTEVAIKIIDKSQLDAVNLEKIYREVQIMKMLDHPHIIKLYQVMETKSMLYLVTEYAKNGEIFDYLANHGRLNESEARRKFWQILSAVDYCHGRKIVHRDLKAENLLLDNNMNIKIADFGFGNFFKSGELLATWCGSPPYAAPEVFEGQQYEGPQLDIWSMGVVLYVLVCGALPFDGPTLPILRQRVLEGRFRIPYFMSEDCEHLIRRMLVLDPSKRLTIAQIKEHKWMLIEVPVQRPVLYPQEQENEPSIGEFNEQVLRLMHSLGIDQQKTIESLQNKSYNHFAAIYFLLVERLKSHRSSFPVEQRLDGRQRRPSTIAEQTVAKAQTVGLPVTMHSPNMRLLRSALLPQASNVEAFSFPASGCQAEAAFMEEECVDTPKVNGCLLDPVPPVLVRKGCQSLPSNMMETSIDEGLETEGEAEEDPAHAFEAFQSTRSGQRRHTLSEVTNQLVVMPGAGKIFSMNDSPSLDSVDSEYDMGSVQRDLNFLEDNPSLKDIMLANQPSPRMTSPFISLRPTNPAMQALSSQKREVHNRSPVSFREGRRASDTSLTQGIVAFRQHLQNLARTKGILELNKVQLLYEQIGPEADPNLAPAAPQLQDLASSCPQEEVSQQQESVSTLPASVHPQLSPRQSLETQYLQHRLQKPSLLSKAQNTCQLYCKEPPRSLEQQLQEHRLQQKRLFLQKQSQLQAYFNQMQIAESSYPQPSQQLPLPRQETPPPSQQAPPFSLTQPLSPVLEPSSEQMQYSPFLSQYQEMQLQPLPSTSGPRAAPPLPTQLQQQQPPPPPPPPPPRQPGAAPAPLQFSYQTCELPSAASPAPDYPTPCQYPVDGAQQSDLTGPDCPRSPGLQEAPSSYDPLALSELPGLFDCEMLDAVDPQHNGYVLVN
SIK3, sequence (Q9Y2K2 whole entry): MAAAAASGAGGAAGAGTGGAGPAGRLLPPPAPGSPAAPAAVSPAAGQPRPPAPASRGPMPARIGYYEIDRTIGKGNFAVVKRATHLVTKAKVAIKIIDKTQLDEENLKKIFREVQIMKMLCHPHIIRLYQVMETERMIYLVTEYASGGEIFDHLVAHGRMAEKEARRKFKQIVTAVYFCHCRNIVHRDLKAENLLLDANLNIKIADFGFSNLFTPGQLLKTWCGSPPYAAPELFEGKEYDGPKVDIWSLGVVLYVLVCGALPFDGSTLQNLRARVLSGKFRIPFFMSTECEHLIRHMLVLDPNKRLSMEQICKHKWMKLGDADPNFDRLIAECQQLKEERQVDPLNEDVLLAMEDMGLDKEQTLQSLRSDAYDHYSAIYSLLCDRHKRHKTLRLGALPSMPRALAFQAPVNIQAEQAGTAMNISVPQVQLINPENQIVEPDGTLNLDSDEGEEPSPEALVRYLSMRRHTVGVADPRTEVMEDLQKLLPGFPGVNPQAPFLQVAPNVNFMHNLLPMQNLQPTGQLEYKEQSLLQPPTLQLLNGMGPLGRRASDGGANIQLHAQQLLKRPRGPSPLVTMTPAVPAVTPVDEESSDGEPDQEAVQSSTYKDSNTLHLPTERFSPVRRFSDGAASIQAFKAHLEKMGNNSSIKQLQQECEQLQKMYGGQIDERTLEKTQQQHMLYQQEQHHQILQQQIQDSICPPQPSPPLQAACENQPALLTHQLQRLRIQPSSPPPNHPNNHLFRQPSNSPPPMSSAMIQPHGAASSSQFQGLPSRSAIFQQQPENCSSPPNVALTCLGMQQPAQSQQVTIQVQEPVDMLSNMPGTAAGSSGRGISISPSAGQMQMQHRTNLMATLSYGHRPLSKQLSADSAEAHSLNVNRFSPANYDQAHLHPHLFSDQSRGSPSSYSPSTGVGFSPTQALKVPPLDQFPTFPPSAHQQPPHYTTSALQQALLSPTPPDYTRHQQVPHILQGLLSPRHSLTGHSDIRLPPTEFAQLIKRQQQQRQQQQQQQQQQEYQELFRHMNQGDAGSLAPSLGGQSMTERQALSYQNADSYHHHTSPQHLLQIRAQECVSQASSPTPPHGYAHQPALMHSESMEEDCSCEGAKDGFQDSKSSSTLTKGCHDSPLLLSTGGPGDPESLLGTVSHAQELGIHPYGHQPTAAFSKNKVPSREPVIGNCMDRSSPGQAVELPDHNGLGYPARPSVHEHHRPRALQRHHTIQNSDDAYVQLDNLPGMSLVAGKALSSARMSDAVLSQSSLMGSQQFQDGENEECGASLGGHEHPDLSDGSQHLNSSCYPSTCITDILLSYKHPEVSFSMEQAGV

| IC50 [1] [nM] | IC50 [2] [nM] | IC50 [3] [nM] | SMILES |
| --- | --- | --- | --- |
| 4520 | 121 | 42 | CC(=O)c1ccc(-n2cnc3cc(Nc4ccc(C)nn4)ncc32)nc1-n1nc(C#N)cc1C [Example 1, 1-[3-Acetyl-6-[6-[(6-methylpyridazin-3-yl)amino]imidazo[4,5-c]pyridin-3-yl]-2-pyridyl]-5-methyl-pyrazole-3-carbonitrile] |
| 366 | 3 | 5 | Cc1ccc(Nc2cc3ncn(-c4ccc(C(C)O)c(-n5nc(C#N)cc5C)n4)c3cn2)nn1 (stereo not drawn) [Example 2, 1-[3-(1-Hydroxyethyl)-6-[6-[(6-methylpyridazin-3-yl)amino]imidazo[4,5-c]pyridin-3-yl]-2-pyridyl]-5-methyl-pyrazole-3-carbonitrile] |
| 78 | 22 | 22 | Cc1ccc(Nc2cc3ncn(-c4ccc(C(C)O)c(-n5nc(C#N)cc5C)n4)c3cn2)cn1 (stereo not drawn) [Example 3, 1-[3-(1-Hydroxyethyl)-6-[6-[(6-methyl-3-pyridyl)amino]imidazo[4,5-c]pyridin-3-yl]-2-pyridyl]-5-methyl-pyrazole-3-carbonitrile] |
| 396 | 3 | 3 | Cc1ccc(Nc2cc3ncn(-c4ccc(C(C)O)c(-c5cn(CC(F)(F)F)nc5C)n4)c3cn2)nn1 (stereo not drawn) [Example 4, 1-[6-[6-[(6-Methylpyridazin-3-yl)amino]imidazo[4,5-c]pyridin-3-yl]-2-[3-methyl-1-(2,2,2-trifluoroethyl)pyrazol-4-yl]-3-pyridyl]ethanol] |
| 17400 | 3290 | 2540 | CC(=O)c1ccc(-n2cnc3cc(N4CCOc5cc(C)nnc54)ncc32)nc1-n1nc(C#N)cc1C [Example 6, 1-[3-Acetyl-6-[6-(3-methyl-6,7-dihydropyridazino[4,3-b][1,4]oxazin-8-yl)imidazo[4,5-c]pyridin-3-yl]-2-pyridyl]-5-methyl-pyrazole-3-carbonitrile] |
| 879 | 7 | 16 | Cc1ccc(Nc2cc3ncn(-c4ccc(C(C)O)c(-n5nc(C(F)F)cc5C)n4)c3cn2)nn1 (stereo not drawn) [Example 7, 1-[2-[3-(difluoromethyl)-5-methyl-pyrazol-1-yl]-6-[6-[(6-methylpyridazin-3-yl)amino]imidazo[4,5-c]pyridin-3-yl]-3-pyridyl]ethanol] |
